Values of other authors, collected in patent publication US12213953B2, “Extended release midodrine hydrochloride compositions and methods of use” (XENAMED CORP., priority 2017, dated 2025).
Structures can show the parent of a compound that is named as a salt.

How the values were obtained:
[1] = high water solubility and high permeability
[2] = oral 10 mg immediate release tablet

SMILES: COc1ccc(OC)c(C(O)CNC(=O)CN)c1 (racemic) [midodrine HCl, (±)-2-amino-N-[2-(2,5-dimethoxyphenyl)-2-hydroxyethyl]acetamide monohydrochloride]
- BCS classification [1]: BCS Class I

SMILES: COc1ccc(OC)c(C(O)CN)c1 (centres unmarked) [desglymidodrine]
- effect of food on bioavailability of desglymidodrine (in vivo): not affected by food
- first peak blood concentration of desglymidodrine [2]: about 10 ng/mL

SMILES: COc1ccc(OC)c(C(O)CNC(=O)CN)c1 (centres unmarked) [midodrine]
- half-life of midodrine [2]: approximately 25 minutes
- time to peak plasma levels of midodrine [2]: about 30 minutes
